Article PMC7985170, “Marine Peptide-N6NH2 and Its Derivative-GUON6NH2 Have Potent Antimicrobial Activity Against Intracellular Edwardsiella tarda in vitro and in vivo” (Frontiers in Microbiology, 2021)
Converted amounts (≈) assume the structure as drawn. Where a SMILES comes first, the peptide text is derived from it. Bridges are numbered along the chain shown (N, C = ends). The star is where a group is joined. Orn(α-tetramethylguanidino) = CN(C)C(=N[C@@H](CCCN)C(=O)*)N(C)C

How the values were obtained:
[1] = system: Salmonella pullorum CVCC1802; assay type: cell-based
Method: (§1) The antimicrobial activity of peptides was determined by the microbroth dilution method ([Zhang et al., 2014]). The bacterial strains were incubated in Mueller-Hinton (MH) medium at 28°C or 37°C overnight. Bacteria (1 × 10^5 CFU/mL) were added into 96-well plates, followed by the addition of serial dilutions of peptides (from 0.0625 to 128 μg/mL). The plates were incubated at 37°C for 18–24 h. The minimal inhibitory concentration (MIC) value was determined as the lowest peptide concentration at which no bacterial growth was observed.

[2] = system: Staphylococcus aureus ATCC43300; assay type: cell-based
Method: as §1

[3] = system: Staphylococcus hyicus 437-2; assay type: cell-based
Method: as §1

[4] = system: Edwardsiella tarda; assay type: cell-based
Method: as §1

[5] = system: Escherichia coli CVCC195; assay type: cell-based
Method: as §1

[6] = system: Salmonella typhimurium CVCC533; assay type: cell-based; details: murium CVCC533
Method: as §1

[7] = system: E. tarda; assay: Post-antibiotic effect (PAE); assay type: cell-based, Edwardsiella tarda; details: for PAE: 2 h exposure, E. tarda, 28°C, n = 3
Method: E. tarda cells were incubated with peptides (1×, 2×, or 4× MIC) for 2 h, diluted, and cultured at 28°C and 200 rpm. An aliquot of samples (50 μL) were taken for CFU counts at different time intervals until bacterial cultures became turbid. Bacteria treated with the N6NH2, GUON6NH2 or vancomycin were used as the positive control; bacteria without treatment were used as the blank control. The PAE was calculated using the following formula: PAE = T–C, where T is the time for the CFU counts to increase by 10-fold above the count observed immediately after drug removal, and C is the corresponding time for the untreated control ([Oh et al., 2019]).

[8] = system: inner membrane of E. tarda; assay: Inner membrane penetration, PI staining by flow cytometry; assay type: cell-based, Edwardsiella tarda; details: 1× MIC, 5–30 min at 37°C, 1 × 10^8 CFU/mL
Method: Mid-log phase E. tarda cells (1 × 10^8 CFU/mL) were incubated with or without 1× MIC peptides solutions at 37°C for 5, 15, and 30 min, respectively. After washing twice with PBS, bacterial cells were then incubated with 50 μg/mL propidium iodide (PI) for 15 min and analyzed using a FACS Calibur Flow Cytometer (BD, United States) ([Stearns-Kurosawa et al., 2011]).

[9] = assay type: cell-based, Streptococcus enteritidis
Method: as §1

[10] = system: S. typhimurium ATCC14028; assay type: cell-based, Salmonella typhimurium
Method: as §1

[11] = system: murine erythrocytes; assay type: cell-based, mouse
Method: The hemolysis of peptides was evaluated by determining the amount of hemoglobin that was released from fresh mouse erythrocytes ([Flamm et al., 2019]). The blood cells were washed three times with 10 mM PBS (pH 7.4) and centrifuged for 10 min (1,500 rpm). Erythrocyte solution (8%, v/v) was mixed with peptide solutions (1:1) and incubated for 1 h at 37°C. The mixture was then centrifuged for 5 min (1,500 rpm), and the absorbance of supernatants was measured at 540 nm. Values of 0 and 100% hemolysis were determined in PBS and 0.1% triton X-100, respectively. The hemolysis of peptides was calculated using the following formula: Hemolysis (%) = [(Abs treated sample – Abs negative control)/(Abs positive control – Abs negative control)] × 100.

[12] = system: E. tarda; assay: Time-killing curve; assay type: cell-based, Edwardsiella tarda; details: 2× or 4× MIC, MHB, 1 × 10^5 CFU/mL, 28°C
Method: Time-killing curve of peptides was performed according to the previous method ([Flamm et al., 2019]). E. tarda was cultured to logarithmic phase, diluted in Mueller Hinton broth (MHB) (1 × 10^5 CFU/mL) containing 1×, 2×, or 4× MIC of peptides, and cultured at 28°C (200 rpm). PBS was added as a control. Bacterial samples (100 μL) were removed at different time intervals (0, 0.5, 1, 1.5, 2, 4, 6, 8, 10, 12, 22, and 24 h) and were counted on MH solid plates. The time-killing curves of peptides were plotted. Bacterial cells treated with 2× MIC norfloxacin and without treatment were used as the positive and blank controls, respectively.

[13] = system: S. aureus ATCC25923; assay type: cell-based, Staphylococcus aureus
Method: as §1

[14] = system: S. aureus ATCC546; assay type: cell-based, Staphylococcus aureus
Method: as §1

[15] = system: E. tarda; assay: Mouse peritonitis model, survival; assay type: in vivo; details: 1 μmoL/kg i.p. at 1 h postinfection, ICR mice, 5 days
Method: To establish a peritonitis mouse model, six-week-old female ICR mice (five mice/group) were intraperitoneally injected with E. tarda (1 × 10^9 CFU/mL, 0.5 mL). The infected mice were followed by the intraperitoneal injection of N6NH2, GUON6NH2 or norfloxacin (1 μmol/kg of body weight, 0.2 mL) at 1 h postinfection, respectively. Mice injected with only bacteria or PBS were used as negative or blank controls. The survival of mice was recorded daily for 5 days.

Q: What does the source list for `CC(C)[C@@H]1NC(=O)CNC(=O)[C@H](CC(N)=O)NC(=O)[C@H](CCCNC(=N)N)NC(=O)[C@H](Cc2ccc(O)cc2)NC(=O)[C@H](C(C)C)NC(=O)[C@@H](NC(=O)[C@@H](NC(=O)[C@H](CC(N)=O)NC(=O)[C@H](Cc2c[nH]c3ccccc23)NC(=O)[C@H](C)NC(=O)[C@H](Cc2ccccc2)NC(=O)[C@H](CCCN)N=C(N(C)C)N(C)C)C(C)C)CSSC[C@@H](C(=O)N[C@@H](Cc2c[nH]cn2)C(=O)N[C@@H](CCCNC(=N)N)C(=O)N[C@@H](CCCNC(=N)N)C(=O)N[C@@H](C)C(=O)N[C@@H](CC(N)=O)C(N)=O)NC(=O)[C@H](C(C)C)NC(=O)[C@H](CCCNC(=N)N)NC1=O` [GUON6NH2] ({Orn(α-tetramethylguanidino)}-FAWNVCVYRNGVRVCHRRAN-NH2; disulfide 6-15)?
A: MIC [1]: 4 µg/mL (≈ 1.52 µM); MIC [2]: 16 µg/mL (≈ 6.08 µM); MIC [3]: 32 µg/mL (≈ 12.2 µM); MIC [4]: 8 µg/mL (≈ 3.04 µM); MIC [5]: 4 µg/mL (≈ 1.52 µM); MIC [6]: 8 µg/mL (≈ 3.04 µM); PAE ([7]; 1× MIC): 1.54 h; PAE ([7]; 2× MIC): 1.51 h; PAE, times longer than that of N6NH2 ([7]; 4× MIC): 2.65 times; PAE ([7]; 4× MIC): 3.97 h; penetration rate (PI-stained cells) [8]: 0.78–2.84%; MIC [9]: 2 µg/mL (≈ 0.76 µM); MIC [10]: 4 µg/mL (≈ 1.52 µM); MHC [11]: >128 µg/mL; cytotoxicity and hemolysis ([11]; red cells of mouse, 1 h): < 1%; time to completely kill E. tarda [12]: ≤ 6 h; MIC [13]: 32 µg/mL (≈ 12.2 µM); MIC [14]: 16 µg/mL (≈ 6.08 µM); survival rate of mice [15]: 60%

Q: What does the source list for `CC(C)[C@@H]1NC(=O)CNC(=O)[C@H](CC(N)=O)NC(=O)[C@H](CCCNC(=N)N)NC(=O)[C@H](Cc2ccc(O)cc2)NC(=O)[C@H](C(C)C)NC(=O)[C@@H](NC(=O)[C@@H](NC(=O)[C@H](CC(N)=O)NC(=O)[C@H](Cc2c[nH]c3ccccc23)NC(=O)[C@H](C)NC(=O)[C@H](Cc2ccccc2)NC(=O)CN)C(C)C)CSSC[C@@H](C(=O)N[C@@H](Cc2cnc[nH]2)C(=O)N[C@@H](CCCNC(=N)N)C(=O)N[C@@H](CCCNC(=N)N)C(=O)N[C@@H](C)C(=O)N[C@@H](CC(N)=O)C(N)=O)NC(=O)[C@H](C(C)C)NC(=O)[C@H](CCCNC(=N)N)NC1=O` [N6NH2]?
A: MIC [1]: 4 µg/mL (≈ 1.62 µM); MIC [2]: 16 µg/mL (≈ 6.46 µM); MIC [3]: 32 µg/mL (≈ 12.9 µM); MIC [4]: 8 µg/mL (≈ 3.23 µM); MIC [5]: 4 µg/mL (≈ 1.62 µM); MIC [6]: 4 µg/mL (≈ 1.62 µM); PAE ([7]; 1× MIC): 1.75 h; PAE ([7]; 2× MIC): 1.67 h; PAE ([7]; 4× MIC): 1.5 h; penetration rate (PI-stained cells) [8]: 0.99–1.71%; MIC [9]: 2 µg/mL (≈ 0.808 µM); MIC [10]: 4 µg/mL (≈ 1.62 µM); MHC [11]: >128 µg/mL; time to completely kill E. tarda [12]: ≤ 6 h; MIC [13]: 32 µg/mL (≈ 12.9 µM); MIC [14]: 16 µg/mL (≈ 6.46 µM); survival rate of mice [15]: 80%
